Laboratory results taken from US5149793A, “Exo-3',4'-O-benzylidene-3"-demethylchartreusin and its salts” (Ishihara Sangyo Kaisha, Ltd., priority 1989, dated 1992).
Converted amounts (≈) assume the structure as drawn. Read-outs that look alike come from different tables or passages of the source.

Legend:
[1] = Antibacterial activity (general statement); settings: result in words
[2] = tested on: B-16 melanoma cells; experiment: Antitumorous activity: growth inhibition of B-16 melanoma cells (Test Example 1); assay type: cell-based, mice; settings: Mus musculus, B16, 1 hour drug exposure at 37° C., then 48 hours incubation
Description: B-16 melanoma cells were suspended in RPMI 1640 medium containing 5% fetal bovine serum in a concentration of 4×10^4 cells/ml. The resulting suspension was placed in the 12 wells (1 ml/well) of a plate-cum-wells, wherein preliminary incubation was then carried out for 24 hours. A test drug was dissolved in a mixture of dimethyl sulfoxide and a culture medium of 5% serum - RPMI 1640 (1:3 in volume ratio). Thus, drug solutions having various respective drug concentrations were prepared. 20 μl each of these drug solutions were respectively added to the wells of the plate. The resulting drug-added suspensions were subjected to incubation at 37° C. for 1 hour. Subsequently, the incubated medium were removed from the respective wells, which were then washed once with the same culture medium as mentioned above. Thereafter, the same culture medium as mentioned above was freshly placed in each of the wells of the plate, followed by incubation at 37° C. for 48 hours.
The number of cells in each well was counted according to a customary method using a Coulter counter.
The values of growth control rate in the members of each drug-treated group, which members corresponding to the respective wells of the plate were culture broths respectively treated with drug solutions having various respective drug concentrations, were calculated by comparison with the growth rate of the drug-untreated group. The inhibitory concentration of each test drug in which the growth control rate was 50% (IC50) was calculated from the above-calculated values of growth control rate.

[3] = Antitumorous activity (general statement); settings: result in words
[4] = result in words; already known; cited from earlier work
[5] = result in words; already known; cited from earlier work; remark: listed apart in the source
[6] = tested on: Bacillus megaterium IFO 12108; experiment: Antibacterial activity, agar dilution method (Test Example 2); assay type: cell-based; settings: Priestia megaterium, IFO12108
Description: (§1) The minimum inhibitory concentrations (MIC) of exo-BDMC against growth of various microorganisms were examined according to an agar dilution method.

[7] = tested on: Bacillus subtilis PCI 219; experiment: as above; assay type: cell-based; settings: PCI219
Description: as §1

[8] = tested on: Staphylococcus aureus 209P; experiment: as above; assay type: cell-based
Description: as §1

[9] = tested on: Flavobacterium meningosepticum IFO 12535; experiment: as above; assay type: cell-based; settings: Elizabethkingia meningoseptica, IFO12535
Description: as §1

[10] = tested on: Gram-positive bacteria or Gram-negative bacteria; experiment: Growth inhibition of bacteria (general statement); assay type: cell-based; settings: exo-BDMC or its salts; result in words
[11] = tested on: cells of experimental tumors of mice and the like, such as P-388 leukemia, L-1210 leukemia, B-16 melanoma, M-5076 sarcoma, Colon 26, and Lewis lung carcinoma; experiment: Activity against cells of experimental tumors (general statement); assay type: cell-based; settings: exo-BDMC or its salts; result in words
[12] = set-up: species or system mice; settings: mouse, in vivo
Description: Exo-6-O-(N-trifluoroacetyl-β-aminoisobutyryl)-3',4'-O-benzylidenechartreusin was intravenously injected in a dose of 40 mg/kg into 160 DDY mice. 300 g of feces excreted within 24 hours after the intravenous injection were collected and ground down in a mortar. 1 liter of a mixed solvent (methanol:chloroform=1:1 in volume ratio) was added to the ground-down feces. The resulting mixture was stirred at 60° C. for 30 minutes to effect extraction, followed by separation of insolubles by filtration. The separated insolubles were admixed with 700 ml of the same mixed solvent as mentioned above to effect extraction again. The two resulting extracts were put together and concentrated under reduced pressure to obtain 9 g of crude exo-BDMC. The crude exo-BDMC was subjected to a purification operation by silica gel column chromatography (developing solvent: chloroform+methanol). The above-mentioned purification operation was repeated. An exo-BDMC-containing fraction obtained by the foregoing purification procedure was concentrated and then recrystallized from a mixed solvent (chloroform:methanol:ethyl acetate=2:1:1 in volume ratio) to obtain 50 mg of exo-BDMC. […]

| SMILES | antibacterial activity [1] | IC50 [2] [µg/mL] | antitumorous activity [3] | antibacterial activity [4] | antitumorous activity [5] | MIC [6] [µg/mL] | MIC [7] [µg/mL] | MIC [8] [µg/mL] | MIC [9] [µg/mL] | capacity of inhibiting growth of bacteria [10] | activities against cells of experimental tumors [11] | presence in the excreta of mice (metabolite of exo-3',4'-O-benzylidenechartreusin derivatives) [12] |
| --- | --- | --- | --- | --- | --- | --- | --- | --- | --- | --- | --- | --- |
| Cc1ccc2oc(=O)c3c(O)c4cccc(O[C@@H]5O[C@H](C)[C@H](O)[C@H](O)[C@H]5O[C@H]5O[C@H](C)[C@H](O)[C@H](O)[C@H]5O)c4c4oc(=O)c1c2c34 [3"-DMC, 3"-demethylchartreusin] | has antitumorous and antibacterial activities | 11 (≈ 17.6 µM) | has antitumorous and antibacterial activities |  |  |  |  |  |  |  |  |  |
| CO[C@H]1[C@@H](O)[C@@H](C)O[C@H](O[C@H]2[C@H](Oc3cccc4c(O)c5c(=O)oc6ccc(C)c7c(=O)oc(c34)c5c67)O[C@H](C)[C@H](O)[C@@H]2O)[C@@H]1O [chartreusin] |  | 9.2 (≈ 14.4 µM) |  | has antibacterial and antitumorous activities | has antibacterial and antitumorous activities |  |  |  |  |  |  |  |
| CO[C@H]1[C@@H](O)[C@@H](C)O[C@H](O[C@H]2[C@H](Oc3cccc4c(O)c5c(=O)oc6ccc(C)c7c(=O)oc(c34)c5c67)O[C@H](C)[C@@H]3OC(c4ccccc4)O[C@@H]32)[C@@H]1O (stereo partly drawn) [exo-BC, Exo-3',4'-O-benzylidenechartreusin, reference compound] |  | 2.1 (≈ 2.88 µM) |  |  |  |  |  |  |  |  |  |  |
| Cc1ccc2oc(=O)c3c(O)c4cccc(O[C@@H]5O[C@H](C)[C@@H]6OC(c7ccccc7)O[C@@H]6[C@H]5O[C@H]5O[C@H](C)[C@H](O)[C@H](O)[C@H]5O)c4c4oc(=O)c1c2c34 (stereo partly drawn) [exo-BDMC, exo-3',4'-O-benzylidene-3"-demethylchartreusin] | has antitumorous and antibacterial activities | 0.9 (≈ 1.26 µM) | has antitumorous and antibacterial activities |  |  | 1.56 (≈ 2.18 µM) | 1.56 (≈ 2.18 µM) | 3.13 (≈ 4.38 µM) | 1.56 (≈ 2.18 µM) | strongly inhibiting growth of either Gram-positive bacteria or Gram-negative bacteria | exhibit activities against cells of experimental tumors | exists in the excreta of mice |
